One experiment addresses G4 DNA (Pu22). The experiment can be described thus: Isothermal titration calorimetry (ITC), reverse titration. Details: species or system human. Particulars: G4 DNA titrated to ligand; 19 °C; one-site binding model. The method, then:
Unfortunately, this was only possible using reverse titration, adding G4 DNA to the ligand, and a direct comparison to the MST binding affinities, which were performed by titrating the ligand to the G4, can thus not be performed. […] The reason why 5 is more efficient in stabilizing G4 DNA could instead be linked to the entropic penalty (−TΔS), which is less for 5 (1.85 kcal/mol) compared to 27 (3.2 kcal/mol).
ITC experiments were performed using a MicroCal ITC200 instrument (GE Healthcare). A buffer containing 10 mM potassium phosphate and 100 mM KCl of pH 7.4 was prepared. The sample cell was filled with a 20 μM ligand, and the syringe with 120 μM prefolded G4 DNA. […] The data was analyzed in MICROCAL PEAQ-ITC analysis software using a one-site binding mode. […]
The following settings were applied: temperature 19 °C, reference power 7 μcal/sec, initial delay 300 sec, stirring speed 1000 RPM, spacing 120 sec, filter 5 sec, first injection 0.5 μL for 1 sec then 2 μL for 4 sec for the subsequent injections, and high-feedback mode. The data was analyzed in MICROCAL PEAQ-ITC analysis software using a one-site binding mode.
Figure S20. Binding curves with their associated ΔG-, ΔH-, and -TΔS-values for compounds 5 and 27 for G4 DNA (Pu22) measured by ITC with a one-site binding model. […]
structure. […] Excitation sculpting was used in the 1D 1H experiments, and 256 scans were recorded. […]

The subject of the next experiment is c-MYC Pu22 G4 DNA. The experiment can be described thus: 1H NMR titration with c-MYC Pu22 G4 DNA. It counts as binding, human. Particulars: DNA 90 μM; 298 K. The text has this:
To study the interactions of compounds 5 and 27 with G4 DNA in more detail, we performed a nuclear magnetic resonance (NMR) titration assay for both compounds with c-MYC Pu22 G4 DNA. In this assay, we monitored chemical shift alterations and the broadening of the well-defined imino protons from the G4 DNA located at 10–12 ppm in the NMR spectrum upon the addition of different compound concentrations. […] Although it is challenging to conclude the details of the binding interactions, the observed impact on the protons in the 3′ quartet for both compounds, especially compound 27, strongly implies the presence of an end-stacking type of interaction.
The G4 DNA stock solutions were prepared by folding 100 μM c-MYC Pu22 in 10 mM potassium phosphate buffer (pH = 7.4) and 35 mM KCl by heating at 95 °C for 10 min and cooling to ambient temperature overnight. 10% D2O was added to the DNA stock solutions, yielding a final DNA concentration of 90 μM. NMR samples were prepared by sequential addition of 5 or 27 from 2 or 10 mM DMSO-d6 stock solutions to 200 μL of the DNA solution which was then transferred to 3 mm NMR tubes. […] All spectra were recorded at 298 K on a Bruker 850 MHz Avance III HD spectrometer equipped with a 5 mm TCI cryoprobe. Excitation sculpting was used in the 1D 1H experiments, and 256 scans were recorded. Processing of spectra was performed in MestreNova 10.0.2.

Experiment [1] relates to Tba (thrombin binding aptamer). The experiment can be described thus: FRET melting assay, Tba G4 DNA. Particulars: 5 at 2 μM, 27 at 5 μM; G4 DNA 0.2 μM. On the procedure: Additional G4 DNA structures were examined in the FRET melting assay to study the selectivity of compound (5) and its methylated analogue (27) toward different G4 structures. Compounds 5 and 27 were tested at 2 and 5 μM, respectively, for their abilities to increase the thermal stability of G4 DNA structures (Figure 6C and Table S1). Overall, this confirms that compound 5 is a much stronger G4 stabilizer, as compared to 27.
Synthetic labeled oligonucleotides for the FRET study were purchased from Eurofins Genomics. Stock solutions were prepared in MQ-water at 100 μM concentration. The sequences used are listed in Supporting Information Table S1. All the oligonucleotides except Pu22 were prefolded in 10 mM lithium cacodylate buffer (pH 7.4), with 10 mM KCl and 90 mM LiCl by heating for 10 min at 95 °C and then cooling in fridge for at least 1 h. […]
The FRET occurs between two dyes (5′-FAM as donor and 3′-TAMRA as acceptor) linked at both extremities of a DNA oligonucleotide. […] This process can be detected by a reduction in the fluorescence emission of the donor. Fluorescence emission of the donor is recovered when the temperature increment triggers the thermal denaturation of the G4 structure. […] The stabilization (ΔTm) is calculated from comparison of Tm of the fluorescently labeled oligonucleotide in the presence or absence of the ligand.

These results are taken from paper PMC10860144, “Exploring the Dispersion and Electrostatic Components in Arene–Arene Interactions between Ligands and G4 DNA to Develop G4-Ligands” (Journal of Medicinal Chemistry, 2024).

One may read the Kd as the constant that tells how readily two partners part at equilibrium. Low readings indicate tighter binding, high ones weaker binding. On G4 DNA (Pu22), `Cc1cc(C)c2nc(Nc3nc(C)cc(C)n3)nc(C)c2c1` [Compound 27, N-(4,6-Dimethylpyrimidin-2-yl)-4,6,8-trimethylquinazolin-2-amine] registered a Kd of 1.04 µM. Moreover, the “binding by NMR titration (imino protons)” value in the experiment with c-MYC Pu22 G4 DNA is given as “bind”. Also, the “effect on thermal stability of Tba” value in experiment [1] is “Neither compound affected the thermal stability”.
The corresponding values for `Cc1cc(C)c2nc(Nc3nc(C)cc(NCCCN(C)C)n3)nc(C)c2c1` [Compound 5, N4-(3-(Dimethylamino)propyl)-6-methyl-N2-(4,6,8-trimethylquinazolin-2-yl)pyrimidine-2,4-diamine] are 0.88 µM, “bind” and “Neither compound affected the thermal stability”.
